Test results published in PubChem BioAssay AID1963866 (Molecular Pharmacology Branch, DTP, NCI, 2024).
pIC50: −log10 of the molar value.

System: PDC KRAS tumor spheroids with HUVEC/MSC, viability
Test: Anticancer human tumor 349418-098-R-PDC patient-derived lung adenocarcinoma cell line growth inhibition [KRAS2]
Conditions: for viability, T/C: stronger effect = lower value
Description: Multicellular complex tumor spheroid response to RAS pathway inhibitors in combination with a targeted agents in patient-derived cell lines with oncogenic KRAS variants from multiple cancer types
A high-throughput screen of multi-cell type tumor spheroids was designed to identify active combinations of targeted small molecules and KRAS pathway inhibitors. Complex spheroids include a stromal component modeled by human endothelial cells (HUVEC) and fibroblasts modeled by human mesenchymal stem cells (MSCs). The concentration ranges selected for each drug and investigational agent were based upon clinically achievable concentrations if the clinical Cmax of the agent was known.
Compounds. The drugs and investigational agents: BI-3406 (NSC825286), BAY-293 (NSC824723), batoprotafib (TNO155; NSC825523), sotorasib (AMG 510; NSC818433), MRTX1257 (NSC819558), elimusertib (BAY 1895344; NSC800525), molibresib (GSK525762; NSC774829), temuterkib (LY3214996; NSC803410), venetoclax (NSC766270), alisertib (NSC759677), olaparib (NSC753686), talazoparib (NSC767125), erdafitinib (NSC781556), ipatasertib (NSC767898), cabozantinib (NSC761068), nintedanib (NSC756659), abemaciclib (NSC768073), docetaxel (NSC628503), trametinib (NSC758246), and sapanisertib (NSC764658) were obtained from the National Cancer Institute (NCI) Developmental Therapeutics Program Chemical Repository. The FDA-approved anticancer drug set is available from the Developmental Therapeutics Program. […] The stock solutions were prepared in dimethyl sulfoxide (DMSO, Sigma-Aldrich, St. Louis, MO, cat. D2650) at 800-fold the tested concentration and stored at -70 degrees C prior to their use. All drugs and investigational agents were tested over a range starting from a high concentration at or near the clinical Cmax and decreasing in half-log increments. If the clinical Cmax for an agent had not been determined, the highest concentration tested was 10 microM.
Cell Culture. All cells were maintained in an incubator at 37 degrees C and 5% CO2 with 95% humidity. The PDC lines were cultured according to standard operating procedures established by the NCI PDMR (https://pdmr.cancer.gov/sops/default.htm). Briefly, all PDCs were thawed and cultured in Matrigel-coated flasks prepared with a working solution of 1X Ham's F-12 nutrient mix, without supplementation (Invitrogen, Waltham, MA, cat. 11765054), 100 U/mL penicillin-streptomycin (Invitrogen, cat. 15140122), and 2.5% Matrigel (Corning Inc., Corning, NY, cat. 354248) for the first three passages. All PDCs were cultured in complete DMEM/F-12 media containing advanced DMEM/F-12 (Invitrogen, cat. 12634028), 4.9% defined fetal bovine serum, heat inactivated (HyClone Laboratories Inc., Logan, UT, cat. SH30070.03HI), 389 ng/mL hydrocortisone (Sigma-Aldrich, cat. H4001), 9.7 ng/mL human EGF recombinant protein (Invitrogen, cat. PHG0313), 23.4 microg/mL adenine (Sigma-Aldrich, cat. A2786), 97.3 U/mL penicillin-streptomycin (Invitrogen, cat. 15140122), 1.9 mM L-glutamine (Invitrogen, cat. 25030081), and 9.7 microM Y-27632 dihydrochloride (Tocris Bioscience, Bristol, United Kingdom, cat. 1254). The PDCs were cultured in complete DMEM/F12 media without 9.7 microM Y-27632 dihydrochloride for at least two passages prior to the screen. The established cell line HOP-62 was cultured in RPMI 1640 medium, HEPES (Invitrogen, cat. 22400105) with 10% defined fetal bovine serum (HyClone Laboratories Inc., cat. SH30070.03) and 2 mM L-glutamine (Invitrogen, cat. 25030081). The pooled donor HUVEC were cultured in endothelial cell growth medium 2 (PromoCell, Heidelberg, Germany, cat. C-22011) and the hMSC were cultured in mesenchymal stem cell growth medium 2 (PromoCell, cat. C-28009). For all experiments, HUVEC and hMSC were used at passages </=5, while the malignant cell lines were used at passages </=15. […]

[1] = curve of first compound, second compound 0.1 µM
[2] = curve of first compound, second compound 0.316 µM
[3] = curve of first compound, second compound 1 µM
[4] = curve of first compound, second compound 3.16 µM
[5] = curve of first compound, second compound 10 µM
[6] = second compound 0.1 µM, first compound 0.00316 µM
[7] = second compound 0.1 µM, first compound 0.01 µM
[8] = second compound 0.1 µM, first compound 0.0316 µM
[9] = second compound 0.316 µM, first compound 0.00316 µM
[10] = second compound 0.316 µM, first compound 0.01 µM
[11] = second compound 0.316 µM, first compound 0.0316 µM
[12] = second compound 1 µM, first compound 0.00316 µM
[13] = second compound 1 µM, first compound 0.01 µM
[14] = second compound 1 µM, first compound 0.0316 µM
[15] = second compound 3.16 µM, first compound 0.00316 µM
[16] = second compound 3.16 µM, first compound 0.01 µM
[17] = second compound 3.16 µM, first compound 0.0316 µM
[18] = second compound 10 µM, first compound 0.00316 µM
[19] = second compound 10 µM, first compound 0.01 µM
[20] = second compound 10 µM, first compound 0.0316 µM
[21] = second compound 0.1 µM, first compound 0.1 µM
[22] = second compound 0.1 µM, first compound 0.316 µM
[23] = second compound 0.1 µM, first compound 1 µM
[24] = second compound 0.316 µM, first compound 0.1 µM
[25] = second compound 0.316 µM, first compound 0.316 µM
[26] = second compound 0.316 µM, first compound 1 µM
[27] = second compound 1 µM, first compound 0.1 µM
[28] = second compound 1 µM, first compound 0.316 µM
[29] = second compound 1 µM, first compound 1 µM
[30] = second compound 3.16 µM, first compound 0.1 µM
[31] = second compound 3.16 µM, first compound 0.316 µM
[32] = second compound 3.16 µM, first compound 1 µM
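Also: spheroids exposed to compounds for seven days before readout.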

CC(=O)Nc1cccc(-n2c(=O)n(C3CC3)c(=O)c3c(Nc4ccc(I)cc4F)n(C)c(=O)c(C)c32)c1 + CNCc1ccccc1-c1csc(C(C)Nc2nc(C)nc3cc(OC)c(OC)cc23)c1
pIC50 [1]: > 10.00 | pIC50 [2]: > 10.00 | pIC50 [3]: > 10.00 | pIC50 [4]: > 10.00 | pIC50 [5]: > 10.00 | viability, T/C (second compound 0.1 µM, first compound 0.0001 µM): 21.2% | viability, T/C (second compound 0.1 µM, first compound 0.000316 µM): 12.7% | viability, T/C (second compound 0.1 µM, first compound 0.001 µM): 10.5% | viability, T/C [6]: 9.99% | viability, T/C [7]: 8.08% | viability, T/C [8]: 5.08% | viability, T/C (second compound 0.316 µM, first compound 0.0001 µM): 20.8% | viability, T/C (second compound 0.316 µM, first compound 0.000316 µM): 12.2% | viability, T/C (second compound 0.316 µM, first compound 0.001 µM): 9.67% | viability, T/C [9]: 7.39% | viability, T/C [10]: 7.29% | viability, T/C [11]: 5.28% | viability, T/C (second compound 1 µM, first compound 0.0001 µM): 17% | viability, T/C (second compound 1 µM, first compound 0.000316 µM): 8.66% | viability, T/C (second compound 1 µM, first compound 0.001 µM): 7.27% | viability, T/C [12]: 5.84% | viability, T/C [13]: 5.69% | viability, T/C [14]: 4.51% | viability, T/C (second compound 3.16 µM, first compound 0.0001 µM): 0.05% | viability, T/C (second compound 3.16 µM, first compound 0.000316 µM): 0.03% | viability, T/C (second compound 3.16 µM, first compound 0.001 µM): 0.02% | viability, T/C [15]: 0.02% | viability, T/C [16]: 0.1% | viability, T/C [17]: 0.08% | viability, T/C (second compound 10 µM, first compound 0.0001 µM): 0.13% | viability, T/C (second compound 10 µM, first compound 0.000316 µM): 0.08% | viability, T/C (second compound 10 µM, first compound 0.001 µM): 0.07% | viability, T/C [18]: 0.07% | viability, T/C [19]: 0.08% | viability, T/C [20]: 0.13%

CCN1CCN(Cc2ccc(Nc3ncc(F)c(-c4cc(F)c5nc(C)n(C(C)C)c5c4)n3)nc2)CC1 + CNCc1ccccc1-c1csc(C(C)Nc2nc(C)nc3cc(OC)c(OC)cc23)c1
pIC50 [1]: 8.11 | pIC50 [2]: 8.43 | pIC50 [3]: > 8.50 | pIC50 [4]: > 8.50 | pIC50 [5]: > 8.50 | viability, T/C [6]: 71% | viability, T/C [7]: 45.5% | viability, T/C [8]: 21.4% | viability, T/C [21]: 14.4% | viability, T/C [22]: 11.6% | viability, T/C [23]: 3.5% | viability, T/C [9]: 53.5% | viability, T/C [10]: 31.7% | viability, T/C [11]: 15.1% | viability, T/C [24]: 16.1% | viability, T/C [25]: 10.9% | viability, T/C [26]: 2.1% | viability, T/C [12]: 34.4% | viability, T/C [13]: 11.7% | viability, T/C [14]: 4.86% | viability, T/C [27]: 5.28% | viability, T/C [28]: 2.85% | viability, T/C [29]: 2.48% | viability, T/C [15]: 0.3% | viability, T/C [16]: 0.05% | viability, T/C [17]: 4.57% | viability, T/C [30]: 0.17% | viability, T/C [31]: 0.02% | viability, T/C [32]: 0.07% | viability, T/C [18]: 0.18% | viability, T/C [19]: 0.06% | viability, T/C [20]: 0.06% | viability, T/C (second compound 10 µM, first compound 0.1 µM): 0.1% | viability, T/C (second compound 10 µM, first compound 0.316 µM): 0.07% | viability, T/C (second compound 10 µM, first compound 1 µM): 0.1%

CC(=O)Nc1cccc(-n2c(=O)n(C3CC3)c(=O)c3c(Nc4ccc(I)cc4F)n(C)c(=O)c(C)c32)c1
viability, T/C (compound 0.0001 µM): 31.7% [middle of 5 runs] | viability, T/C (compound 0.000316 µM): 22.2% [middle of 5 runs] | viability, T/C (compound 0.001 µM): 18.4% [middle of 5 runs] | viability, T/C (compound 0.00316 µM): 13.8% [middle of 5 runs] | viability, T/C (compound 0.01 µM): 9.89% [middle of 5 runs] | viability, T/C (compound 0.0316 µM): 7.25% [middle of 5 runs] | pIC50 (curve of compound): > 10.00

CN(C)C/C=C/C(=O)Nc1cc2c(Nc3ccc(F)c(Cl)c3)ncnc2cc1O[C@H]1CCOC1
viability, T/C (compound 0.001 µM): 94.4% [middle of 5 runs] | viability, T/C (compound 0.0316 µM): 99% [middle of 5 runs] | viability, T/C (compound 0.1 µM): 97.2% [middle of 5 runs] | pIC50 (curve of compound): < 7.00

CC1OCC2(CCN(c3cnc(Sc4ccnc(N)c4Cl)c(N)n3)CC2)C1N (stereo unspecified) + C=CC(=O)N1CCN(c2nc(OCC3CCCN3C)nc3c2CCN(c2cccc4cccc(C)c24)C3)CC1CC#N
pIC50 (curve of first compound, second compound 0.0316 µM): < 5.00 | pIC50 [1]: < 5.00 | pIC50 [2]: < 5.00 | pIC50 [3]: 5.19 | pIC50 [4]: > 7.50 | viability, T/C (second compound 0.0316 µM, first compound 0.0316 µM): 122% | viability, T/C (second compound 0.0316 µM, first compound 0.1 µM): 95.1% | viability, T/C (second compound 0.0316 µM, first compound 0.316 µM): 92.8% | viability, T/C (second compound 0.0316 µM, first compound 1 µM): 96.8% | viability, T/C (second compound 0.0316 µM, first compound 3.16 µM): 94.1% | viability, T/C (second compound 0.0316 µM, first compound 10 µM): 68.7% | viability, T/C [8]: 108% | viability, T/C [21]: 93.6% | viability, T/C [22]: 79.8% | viability, T/C [23]: 89.4% | viability, T/C (second compound 0.1 µM, first compound 3.16 µM): 78% | viability, T/C (second compound 0.1 µM, first compound 10 µM): 83.6% | viability, T/C [11]: 99% | viability, T/C [24]: 112% | viability, T/C [25]: 97.8% | viability, T/C [26]: 98.5% | viability, T/C (second compound 0.316 µM, first compound 3.16 µM): 96.8% | viability, T/C (second compound 0.316 µM, first compound 10 µM): 95.1% | viability, T/C [14]: 71% | viability, T/C [27]: 69.4% | viability, T/C [28]: 62.9% | viability, T/C [29]: 58.3% | viability, T/C (second compound 1 µM, first compound 3.16 µM): 50.2% | viability, T/C (second compound 1 µM, first compound 10 µM): 49.5% | viability, T/C [17]: 0.15% | viability, T/C [30]: 0.15% | viability, T/C [31]: 0.13% | viability, T/C [32]: 0.14% | viability, T/C (second compound 3.16 µM, first compound 3.16 µM): 0.14% | viability, T/C (second compound 3.16 µM, first compound 10 µM): 0.26%
